pIC50: −log10 of the molar value. Where two headings read alike, the source gives them in different places.
Key:
[1] = system: P. falciparum Tm90-C2B; experiment: SYBR Green growth inhibition assay, P. falciparum Tm90-C2B; assay type: cell-based, Plasmodium falciparum; settings: Plasmodium falciparum, TM90, 72 h, read-out: IC50 Tm90-C2B
Protocol: (§1) In addition to the drug-sensitive P. falciparum D6 strain, the aminoguanidines were assessed against three drug-resistant strains (Tables 1-3).
(§2) The following parasite strains were used in this study and obtained through BEI Resources, NIAID, NIH. […] The culture medium used was RPMI-1640, supplemented with 25 mM HEPES buffer, 25 mg/L gentamicin sulfate, 45 mg/L hypoxanthine, 10 mM glucose, 2 mM glutamine, and 0.5% Albumax II (complete medium).^43 Cultures were maintained in a standard low oxygen atmosphere (5% O2, 5% CO2, 90% N2) in an environmental chamber and incubated at 37° C. Cultures were sub-passaged every 3-4 days into a fresh culture flask containing complete media and erythrocytes.
(§3) The aminoguanidine series was assessed for in vitro antiplasmodial activity using the fluorescence-based SYBR Green assay described previously by Smilkstein and co-workers.^38 Compounds were evaluated in quadruplicate in flat-bottomed Costar clear 96-well plates (Model #3585). A two-fold serial dilution of each compound was performed across the columns of the test plates starting with 20 μM and ending with a final untreated column to serve as control wells. Asynchronous parasite infected erythrocytes in growth media were added to each well for a total volume of 100 μL, final hematocrit of 2%, and initial parasitemia of 0.2%. The commercial malaria drugs atovaquone and chloroquine were used as control drugs. Test plates were incubated for 72 hr at 37° C. in an environmental chamber with a controlled low oxygen atmosphere (5% O2, 5% CO2, 90% N2). After the incubation period, 100 μL SYBR Green I dye-detergent solution was added to each well, and the plates were incubated at ambient temperature and atmosphere in the dark for at least one hour. Fluorescence was read at 497 nm excitation and 520 nm emission bands using a Spectramax iD3 plate reader. Fluorescence readings were normalized with respect to the untreated control wells representing normal parasite growth and plotted against the logarithm of drug concentration.

[2] = system: P. falciparum A6; experiment: SYBR Green growth inhibition assay, P. falciparum A6; assay type: cell-based, Plasmodium falciparum; settings: Plasmodium falciparum, 72 h, read-out: IC50 A6
Protocol: as §1, §2, §3

[3] = system: P. falciparum Dd2; experiment: SYBR Green growth inhibition assay, P. falciparum Dd2; assay type: cell-based, Plasmodium falciparum; settings: Plasmodium falciparum, DD2, 72 h, read-out: IC50 Dd2
Protocol: as §1, §2, §3

[4] = system: P. falciparum strain D6; experiment: SYBR Green growth inhibition assay, P. falciparum D6; assay type: cell-based, Plasmodium falciparum; settings: Plasmodium falciparum, D6, Erythrocyte, read-out: IC50 D6
Protocol: The in vitro activity of each compound in the aminoguanidine library was assessed against asynchronous cultures of Plasmodium falciparum parasites replicating within human erythrocytes (Tables 1-3). As the chemical development of robenidine was not discussed in its original publication in 1970^4 and limited structural information is available regarding its mechanism of action,^10 profiling was guided primarily by in vitro potency against the P. falciparum D6 strain cultured in human erythrocytes as described above.
as §2
as §3, with “The commercial malaria drugs atovaquone and chloroquine were used as control drugs.” left out

[5] = system: human hepatoma derived HepG2 cells; experiment: HepG2 cytotoxicity assay (resazurin); assay type: cell-based; settings: HepG2, 24 hr drug, 24 hr recovery
Protocol: (§4) In this assay, HepG2 cells were incubated with test compounds for 24 hours, followed by a 24-hour recovery period and subsequent staining to evaluate for cytotoxic effects with resazurin. The ratio of the resulting HepG2 IC50 value to the P. falciparum D6 IC50 value can be considered an ‘in vitro therapeutic index,’ or IVTI.
(§5) Compounds were prepared as 10 mM stock solutions in DMSO. […] HepG2 cells were added to each well of flat bottom 96-well tissue culture plates at an initial density of 2×10^4 cells per well, and an initial volume of 160 μL complete medium per well. After an overnight incubation at 37° C. to adhere the cells to the culture plates, 40 μL drug solutions in complete medium were applied to each well at a final concentration range of 0 to 200 μM across each plate. Drugs were tested in triplicate or quadruplicate. The cells were incubated for 24 hours at 37° C. and 5% CO2 with the drug solutions, which were then aspirated and replaced with 200 μL per well of complete medium for an additional 24 hour incubation under the same conditions. To each well was added 20 μL of resazurin (Alamar Blue) in PBS buffer to a final concentration of 10 μM, and the plates were incubated for 3 hours. Fluorescence was measured at 560 nm excitation and 590 nm emission bands using a Spectramax iD3 plate reader. Fluorescence readings were normalized with respect to the untreated control wells and plotted against the logarithm of drug concentration.

[6] = HepG2 cytotoxicity assay (resazurin); assay type: cell-based, human; settings: human, HepG2 cells; HepG2, 24 hr drug, 24 hr recovery
Protocol: as §4, §5

Compound | pIC50 [1] | pIC50 [2] | pIC50 [3] | pIC50 ([4]; pan-sensitive strain, 72 hr, asynchronous cultures in human erythrocytes) | pIC50 [5] | pIC50 ([4]; 72 h) | IC50 at 24 h [6] [nM]
O=C1C(O)=C([C@H]2CC[C@H](c3ccc(Cl)cc3)CC2)C(=O)c2ccccc21 [Atovaquone, reference compound] | < 5.30 | < 5.30 | > 9.00 | > 9.00 | 4.14 | – | –
N=C(N/N=C/c1ccc(O)cc1)N/N=C/c1ccc(O)cc1 [Compound 25] | 6.54 | 6.56 | 6.62 | – | – | 6.84 | 39000
N=C(N/N=C/c1ccccc1F)N/N=C/c1ccccc1F [Compound 2] | < 5.30 | 5.72 | 5.34 | – | – | 5.54 | > 200000
N=C(N/N=C/c1ccc(-c2ccccc2)cc1)N/N=C/c1ccc(-c2ccccc2)cc1 [Compound 26] | 7.15 | 7.48 | 7.06 | – | – | 7.82 | > 200000
CN(C)c1ccc(/C=N/NC(=N)N/N=C/c2ccc(N(C)C)cc2)cc1 [Compound 28] | 6.67 | 6.91 | 6.58 | – | – | 6.93 | 20000
N=C(N/N=C/c1ccc(OC(F)F)cc1)N/N=C/c1ccc(OC(F)F)cc1 [Compound 18] | 6.71 | 7.06 | 6.72 | – | – | 7.15 | 19000
N=C(N/N=C/c1ccc(Br)cc1)N/N=C/c1ccc(Br)cc1 [Compound 9] | 6.05 | 6.57 | 6.06 | – | – | 6.56 | 38000
N=C(N/N=C/c1ccccc1)N/N=C/c1ccccc1F [Compound 38] | < 5.30 | 6.08 | 5.66 | – | – | 5.99 | > 200000
N=C(N/N=C/c1ccccc1OC(F)(F)F)N/N=C/c1ccccc1OC(F)(F)F [Compound 14] | < 5.30 | 6.41 | 5.63 | – | – | 5.97 | 156000
N=C(N/N=C/c1ccc(N2CCOCC2)cc1)N/N=C/c1ccc(N2CCOCC2)cc1 [Compound 33] | 6.53 | 6.94 | 6.48 | – | – | 6.88 | > 200000
N=C(N/N=C/c1cccc(Cl)c1)N/N=C/c1cccc(Cl)c1 [Compound 6] | 6.18 | 6.63 | 6.25 | – | – | 6.69 | 35000
N=C(N/N=C/c1ccc(C(F)(F)F)cc1)N/N=C/c1ccc(C(F)(F)F)cc1 [Compound 12] | 5.56 | 6.25 | 5.81 | – | – | 6.21 | 40000
N=C(N/N=C/c1ccccc1)N/N=C/c1ccccc1 [Compound 24] | < 5.30 | 6.24 | 5.37 | – | – | 6.15 | > 200000
N#Cc1ccccc1/C=N/NC(=N)N/N=C/c1ccccc1C#N [Compound 20] | 5.70 | 6.01 | 5.68 | – | – | 5.99 | 31000
N=C(N/N=C/c1cccc(OC(F)(F)F)c1)N/N=C/c1cccc(OC(F)(F)F)c1 [Compound 15] | 5.52 | 6.16 | 5.80 | – | – | 6.17 | 61000
N=C(N/N=C/c1cccc(F)c1)N/N=C/c1cccc(F)c1 [Compound 3] | < 5.30 | 6.37 | < 5.30 | – | – | 6.12 | 49000
N=C(N/N=C/c1ccccc1Cl)N/N=C/c1ccccc1Cl [Compound 5] | 5.91 | 6.46 | 6.02 | – | – | 6.48 | > 200000
N=C(N/N=C/c1cccc(Br)c1)N/N=C/c1cccc(Br)c1 [Compound 8] | 5.74 | 6.30 | 5.82 | – | – | 6.24 | 62000
COc1ccc(/C=N/NC(=N)N/N=C/c2ccc(OC)cc2)cc1 [Compound 11] | < 5.30 | 6.54 | 5.80 | – | – | 6.58 | > 200000
N=C(N/N=C/c1ccc(F)cc1)N/N=C/c1ccc(F)cc1 [Compound 4] | 5.31 | 6.43 | 5.42 | – | – | 5.99 | 24000
CC#COc1ccc(/C=N/NC(=N)N/N=C/c2ccc(OC#CC)cc2)cc1 [Compound 32] | 6.42 | 6.82 | 6.70 | – | – | 6.99 | > 200000
Cc1ccc(/C=N/NC(=N)N/N=C/c2ccc(C)cc2)cc1 [Compound 10] | 5.60 | < 5.30 | 5.61 | – | – | 6.04 | 43000
N=C(N/N=C/c1ccccc1Br)N/N=C/c1ccccc1Br [Compound 7] | 6.01 | 6.06 | 6.15 | – | – | 6.55 | 94000

Source: patent US20220267258A1, “ROBENIDINE ANALOGS AS POTENT ANTIMALARIALS AGAINST DRUG-RESISTANT PLASMODIUM FALCIPARUM” (OREGON HEALTH & SCIENCE UNIVERSITY, priority 2021, published 2022)
